What all share (type): in vivo
In data set [1] the test system is Beet Armyworm (BAW) (Spodoptera exigua). Nature of the data set: Bioassay on Beet Armyworm (BAW), 128-well diet tray assay. The note with it: 168 h, 50 μg/cm^2 on artificial diet, second instar larvae, five to seven days, 25° C., read-out: BAW % Control (or Mortality) rating. Summed up: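 Artificial diet was surface-treated with 50 μg/cm^2 compound in 90:10 acetone-water and dried, then infested with one to five second-instar larvae per well. Trays were held 5–7 days at 25° C, 14:10 light-dark. Percent mortality was averaged over eight wells.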

Data set [2] has as its system Cabbage Looper (CL) (Trichoplusia ni). The data set can be described thus: Bioassay on Cabbage Looper (CL), 128-well diet tray assay. The note with it: 168 h, 50 μg/cm^2 on artificial diet, second instar larvae, five to seven days, 25° C., read-out: CL % Control (or Mortality) rating. The essentials: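 Second-instar larvae (one to five per well) placed on artificial diet treated with 50 μg/cm^2 compound in 90:10 acetone-water, dried, eight wells per compound. Held at 25 °C, 14:10 light-dark for five to seven days; percent mortality per well, averaged over the eight wells.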

Data set [3] deals with Green Peach Aphid (GPA) (Myzus persicae). Nature of the data set: Bioassay on Green Peach Aphid (GPA), foliar spray on cabbage seedlings. Conditions: 72 h, 200 ppm foliar spray on cabbage seedlings, graded after three days, Abbott corrected % control, read-out: GPA % Control (or Mortality) rating. As for the experimental part:
Certain molecules disclosed in this document were tested against GPA using procedures described in the following example. In the reporting of the results, the “GPA & YFM Rating Table” was used (See Table Section).
Cabbage seedlings grown in 3-inch pots, with 2-3 small (3-5 cm) true leaves, were used as test substrate. The seedlings were infested with 20-50 GPA (wingless adult and nymph stages) one day prior to chemical application. Four pots with individual seedlings were used for each treatment. Test compounds (2 mg) were dissolved in 2 mL of acetone/MeOH (1:1) solvent, forming stock solutions of 1000 ppm test compound. The stock solutions were diluted 5× with 0.025% Tween 20 in water to obtain the solution at 200 ppm test compound. A hand-held aspirator-type sprayer was used for spraying a solution to both sides of […] leaves until runoff. Reference plants (solvent check) were sprayed with the diluent only containing 20% by volume of acetone/MeOH (1:1) solvent. Treated plants were held in a holding room for three days at approximately 25° C. and ambient relative humidity (RH) prior to grading. Evaluation was conducted by counting the number of live aphids per plant under a microscope. Percent Control was measured by using Abbott's correction formula (W. S. Abbott, “A Method of Computing the Effectiveness of an Insecticide” J. Econ. Entomol. 18 (1925), pp. 265-267) as follows. Corrected % Control=100*(X−Y)/X where X=No. of live aphids on solvent check plants and Y=No. of live aphids on treated plants. The results are indicated in the table entitled “Table ABC: Assay Results” and “Table ABCD: Assay Results” (See Table Section).

Data set [4] concerns Yellow Fever Mosquito (YFM) (Aedes aegypti). Nature of the data set: Bioassay on Yellow Fever Mosquito (YFM) larvae, 96-well plate. Conditions: about 1 day-old larvae, master plate 4000 ppm in DMSO diluted, scored on mortality after 3 days. The essentials:
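Compounds from 4000 ppm DMSO master solutions, diluted in 90:10 water:acetone, dispensed into wells and infested with about 1-day-old larvae in liver-powder water. Held covered at room temperature for 3 days, then each well scored for mortality; 6 replicate plates per master.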

Read-outs that look alike come from different tables or passages of the source.

What is called mortality is the share of the test organisms that died. In the case of `CC(C)(C)OC(=O)NC1Cc2ccc(-c3ncn(-c4ccc(OC(F)(F)F)cc4)n3)cc2C1` (stereo not drawn) [C1, tert-butyl (5-(1-(4-(trifluoromethoxy)phenyl)-1H-1,2,4-triazol-3-yl)-2,3-dihydro-1H-inden-2-yl)carbamate], the mortality at 50 µg/cm2 in data set [1] (Table ABCD) and in data set [2] (Table ABCD) was 50 to 100% each time. In data set [3] (Table ABCD), the mortality at 200 ppm is 0 to 80%. For the same compound, the “YFM % Control (or Mortality) rating” value in data set [4] (Table ABCD) is given as “A (80-100)”.

Turning to `Cc1ccc(C(C)C)c(N2C(=O)CS/C2=N\C(=O)NC2Cc3ccc(-c4ncn(-c5ccc(OC(F)(F)F)cc5)n4)cc3C2)c1` (stereo not drawn) [F2, (Z)-1-(3-(2-isopropyl-5-methylphenyl)-4-oxothiazolidin-2-ylidene)-3-(5-(1-(4-(trifluoromethoxy)phenyl)-1H-1,2,4-triazol-3-yl)-2,3-dihydro-1H-inden-2-yl)urea], the mortality at 50 µg/cm2 in data set [1] (Table ABC) and in data set [2] (Table ABC) was 50 to 100% throughout. In data set [3] (Table ABC), the mortality at 200 ppm fell in the range of 0 to 80%. Also, the “YFM % Control (or Mortality) rating” value in data set [4] (Table ABC) is given as “A (80-100)”.

For `Cc1ccc(C(C)C)c(N2C(=O)CS/C2=N\C(=O)NC2Cc3ccc(-c4ncn(-c5ccc(OC(F)(F)C(F)(F)F)cc5)n4)cc3C2)c1` (stereo not drawn) [F4, (Z)-1-(3-(2-Isopropyl-5-methylphenyl)-4-oxothiazolidin-2-ylidene)-3-(5-(1-(4-(perfluoroethoxy)phenyl)-1H-1,2,4-triazol-3-yl)-2,3-dihydro-1H-inden-2-yl)urea], the mortality at 50 µg/cm2 in data set [1] (Table ABC) and in data set [2] (Table ABC) was 50 to 100% each time. In addition, in data set [3] (Table ABC), the mortality at 200 ppm lay within 0 to 80%. Also, the “YFM % Control (or Mortality) rating” value in data set [4] (Table ABC) was “A (80-100)”.

With `CCc1ccccc1N1C(=O)CS/C1=N\C(=O)NC1Cc2ccc(-c3ncn(-c4ccc(OC(F)(F)F)cc4)n3)cc2C1` (stereo not drawn) [F12, (Z)-1-(3-(2-Ethylphenyl)-4-oxothiazolidin-2-ylidene)-3-(5-(1-(4-(trifluoromethoxy)phenyl)-1H-1,2,4-triazol-3-yl)-2,3-dihydro-1H-inden-2-yl)urea], the mortality at 50 µg/cm2 in data set [1] (Table ABC) and in data set [2] (Table ABC) was 50 to 100% throughout. The mortality at 200 ppm in data set [3] (Table ABC) was determined as 0%. The “YFM % Control (or Mortality) rating” value in data set [4] (Table ABC) was “A (80-100)”.

`CCCc1ccc(C)cc1N1C(=O)CS/C1=N\C(=O)NC1Cc2ccc(-c3ncn(-c4ccc(OC(F)(F)F)cc4)n3)cc2C1` (stereo not drawn) [F13, (Z)-1-(3-(5-Methyl-2-propylphenyl)-4-oxothiazolidin-2-ylidene)-3-(5-(1-(4-(trifluoromethoxy)phenyl)-1H-1,2,4-triazol-3-yl)-2,3-dihydro-1H-inden-2-yl)urea]: the mortality at 50 µg/cm2 in data set [1] (Table ABC) and in data set [2] (Table ABC) was 50 to 100% throughout. Also, in data set [3] (Table ABC), the mortality at 200 ppm is 0 to 80%. Besides, the “YFM % Control (or Mortality) rating” value in data set [4] (Table ABC) is “A (80-100)”.

For the compound `O=C(/N=C1\SCC(=O)N1c1ccccc1C1CC1)NC1Cc2ccc(-c3ncn(-c4ccc(OC(F)(F)F)cc4)n3)cc2C1` (stereo not drawn) [F15, (Z)-1-(3-(2-Cyclopropylphenyl)-4-oxothiazolidin-2-ylidene)-3-(5-(1-(4-(trifluoromethoxy)phenyl)-1H-1,2,4-triazol-3-yl)-2,3-dihydro-1H-inden-2-yl)urea], the mortality at 50 µg/cm2 in data set [1] (Table ABC) and in data set [2] (Table ABC) was 50 to 100% throughout. In addition, the mortality at 200 ppm in data set [3] (Table ABC) was in the range of 0 to 80%. Further, the “YFM % Control (or Mortality) rating” value in data set [4] (Table ABC) is “A (80-100)”.

For `COc1ccc(C)cc1NC(=S)NC(=O)NC1CCc2cc(-c3ncn(-c4ccc(OC(F)(F)F)cc4)n3)ccc2C1` (stereo not drawn) [P31, 1-[(2-Methoxy-5-methyl-phenyl)carbamothioyl]-3-[6-[1-[4-(trifluoromethoxy)phenyl]-1,2,4-triazol-3-yl]tetralin-2-yl]urea], the mortality at 50 µg/cm2 in data set [1] (Table ABC) and in data set [2] (Table ABC) was 50 to 100% in each case. Further, the “YFM % Control (or Mortality) rating” value in data set [4] (Table ABC) is “A (80-100)”.

Turning to `Cc1ccc(C)c(N2C(=O)CS/C2=N\C(=O)NC2CCc3cc(-c4ncn(-c5ccc(OC(F)(F)F)cc5)n4)ccc3C2)c1` (stereo not drawn) [P32, (Z)-1-(3-(2,5-Dimethylphenyl)-4-oxothiazolidin-2-ylidene)-3-(6-(1-(4-(trifluoromethoxy)phenyl)-1H-1,2,4-triazol-3-yl)-1,2,3,4-tetrahydronaphthalen-2-yl)urea], the mortality at 50 µg/cm2 in data set [1] (Table ABC) and in data set [2] (Table ABC) was 50 to 100% each time. In data set [4] (Table ABC), the “YFM % Control (or Mortality) rating” value is recorded as “B (More than 0-Less than 80)”.

Turning to `CC(C)c1ccc(Cl)cc1N1C(=O)CS/C1=N\C(=O)NC1CCc2cc(-c3ncn(-c4ccc(OC(F)(F)F)cc4)n3)ccc2C1` (stereo not drawn) [P33, (Z)-1-(3-(5-Chloro-2-isopropylphenyl)-4-oxothiazolidin-2-ylidene)-3-(6-(1-(4-(trifluoromethoxy)phenyl)-1H-1,2,4-triazol-3-yl)-1,2,3,4-tetrahydronaphthalen-2-yl)urea], the mortality at 50 µg/cm2 in data set [1] (Table ABC) and in data set [2] (Table ABC) was 50 to 100% throughout. The “YFM % Control (or Mortality) rating” value in data set [4] (Table ABC) is “A (80-100)”.

Consider `CCCc1ccc(C)cc1N1C(=O)CS/C1=N\C(=O)NC1CCc2cc(-c3ncn(-c4ccc(OC(F)(F)F)cc4)n3)ccc2C1` (stereo not drawn) [P34, (Z)-1-(3-(5-Methyl-2-propylphenyl)-4-oxothiazolidin-2-ylidene)-3-(6-(1-(4-(trifluoromethoxy)phenyl)-1H-1,2,4-triazol-3-yl)-1,2,3,4-tetrahydronaphthalen-2-yl)urea], for which the mortality at 50 µg/cm2 in data set [1] (Table ABC) and in data set [2] (Table ABC) was 50 to 100% throughout. For the same compound, the “YFM % Control (or Mortality) rating” value in data set [4] (Table ABC) is “D (No activity noticed in this bioassay)”.

`COc1ccc(N2C(=O)CS/C2=N\C(=O)NC2CCc3cc(-c4ncn(-c5ccc(OC(F)(F)F)cc5)n4)ccc3C2)c(C)c1` (stereo not drawn) [P35, (Z)-1-(3-(4-methoxy-2-methylphenyl)-4-oxothiazolidin-2-ylidene)-3-(6-(1-(4-(trifluoromethoxy)phenyl)-1H-1,2,4-triazol-3-yl)-1,2,3,4-tetrahydronaphthalen-2-yl)urea]: the mortality at 50 µg/cm2 in data set [1] (Table ABC) and in data set [2] (Table ABC) was 50 to 100% each time. Besides, the “YFM % Control (or Mortality) rating” value in data set [4] (Table ABC) is “A (80-100)”.

With `CCc1cccc(C)c1N1C(=O)CS/C1=N\C(=O)NC1CCc2cc(-c3ncn(-c4ccc(OC(F)(F)F)cc4)n3)ccc2C1` (stereo not drawn) [P36, (Z)-1-(3-(2-Ethyl-6-methylphenyl)-4-oxothiazolidin-2-ylidene)-3-(6-(1-(4-(trifluoromethoxy)phenyl)-1H-1,2,4-triazol-3-yl)-1,2,3,4-tetrahydronaphthalen-2-yl)urea], the mortality at 50 µg/cm2 in data set [1] (Table ABC) and in data set [2] (Table ABC) was 50 to 100% in each case. Also, in data set [4] (Table ABC), the “YFM % Control (or Mortality) rating” value is recorded as “A (80-100)”.

For `Cc1ccc(Cl)c(N2C(=O)CS/C2=N\C(=O)NC2CCc3cc(-c4ncn(-c5ccc(OC(F)(F)F)cc5)n4)ccc3C2)c1` (stereo not drawn) [P37, (Z)-1-(3-(2-Chloro-5-methylphenyl)-4-oxothiazolidin-2-ylidene)-3-(6-(1-(4-(trifluoromethoxy)phenyl)-1H-1,2,4-triazol-3-yl)-1,2,3,4-tetrahydronaphthalen-2-yl)urea], the mortality at 50 µg/cm2 in data set [1] (Table ABC) and in data set [2] (Table ABC) was 50 to 100% in each case. The “YFM % Control (or Mortality) rating” value in data set [4] (Table ABC) is listed as “D (No activity noticed in this bioassay)”.

Take `COc1ccc(C)cc1N1C(=O)CS/C1=N\C(=O)NC1CCc2cc(-c3ncn(-c4ccc(OC(F)(F)F)cc4)n3)ccc2C1` (stereo not drawn) [P38, (Z)-1-(3-(2-Methoxy-5-methylphenyl)-4-oxothiazolidin-2-ylidene)-3-(6-(1-(4-(trifluoromethoxy)phenyl)-1H-1,2,4-triazol-3-yl)-1,2,3,4-tetrahydronaphthalen-2-yl)urea]: the mortality at 50 µg/cm2 in data set [1] (Table ABC) and in data set [2] (Table ABC) was 50 to 100% each time. Moreover, the “YFM % Control (or Mortality) rating” value in data set [4] (Table ABC) was “A (80-100)”.

These data come from patent US9469617B2, “Molecules having certain pesticidal utilities, and intermediates, compositions, and processes related thereto” (priority 2014, dated 2016).
